In patent US20210147900A1, “METHODS AND COMPOSITIONS FOR DETECTING BETA-HYDROXYBUTYRATE IN BIOLOGICAL FLUIDS” (F.A.T. Stats LLC, priority 2019, published 2021):

Test: Solubility / appearance of coenzyme Q with β-cyclodextrin in water or Tris/NaOH buffer
Type: physicochemical
Conditions: for Appearance: in water, 5 hours at 75° C. and 5 hours at 85° C.
Procedure: First, 0.107 grams of β-cyclodextrin was dissolved in 4.8 grams of the Tris/NaOH buffer solution (pH 8.7). This mixture this heated at 45° C. for 5 minutes and then 0.082 g of coenzyme Q0 was added. Heating was continued until coenzyme Q0 was no longer visible as a solid. The coenzyme Q0/β-cyclodextrin solution was used within 2 hours of making it. Alternatively, 0.0074 grams of coenzyme Q0 and 0.0481 grams of β-cyclodextrin was mixed with 1.2070 grams water. This mixture was heated at 50° C. for 20 minutes with stirring. […] This procedure results in a fully solubilized form of coenzyme Q0 which is optically transparent and has no visible particles of coenzyme Q0 in the mixture. It is important that the coenzyme Q0 mixture is fully soluble so that it may be mixed with other water-soluble ingredients and applied to a paper test strip for further reactions with biological solutes. If the coenzyme Q0/β-cyclodextrin mixture is not water soluble, it cannot provide a uniform distribution of reactions for the test for BHB in a biological fluid as disclosed herein.
The procedure for solubilizing coenzyme Q10 in U.S. Patent Application Publication No. US 2007/0202090 A1 was followed and results are listed below in Table 17. Coenzyme Q10 and β-cyclodextrin were combined with water in the following molar ratios of coenzyme Q10 to β-cyclodextrin: 1:1; 1:5; and 1:10. Each solution was heated for 5 hours at 75° C. and then an additional 5 hours at 85° C.

Row | Appearance (molar ratio coenzyme Q10 to β-cyclodextrin 1:1) | Appearance (molar ratio coenzyme Q10 to β-cyclodextrin 1:5) | Appearance (molar ratio coenzyme Q10 to β-cyclodextrin 1:10) | Incorporation in basic buffer solution with β-cyclodextrin (same procedure as Example 2 (Tris/NaOH buffer pH 8.7, heating)) | SMILES | Appearance of mixture with β-cyclodextrin in water (0.0074 g coenzyme Q0, 0.0481 g β-cyclodextrin, 1.2070 g water, 50° C. for 20 minutes with stirring)
1 | – | – | – | – | COC1=C(OC)C(=O)C(C)=CC1=O [coenzyme Q0, 2,3-dimethoxy-5-methyl-p-benzoquinone] | transparent solution with no visible particles
2 | not transparent; | not transparent; | not transparent; | could not be adequately incorporated | COC1=C(OC)C(=O)C(C/C=C(\C)CC/C=C(\C)CC/C=C(\C)CC/C=C(\C)CC/C=C(\C)CC/C=C(\C)CC/C=C(\C)CC/C=C(\C)CC/C=C(\C)CCC=C(C)C)=C(C)C1=O [coenzyme Q10] | –
